A word on the Solubility: it is how much of the substance goes into solution per volume. High values mean much dissolved substance, low ones little dissolved substance. Usually Tmax stands for the time at which the peak concentration occurs.

Data set [1] in a line: Hygroscopicity / moisture sorption isotherm of solid state forms. The data set is classed as physicochemical. The settings on record: for hygroscopicity: general statement on the solid state form. The source says: FIG. 6A is a moisture sorption isotherm corresponding to the Amorphous Freebase (via dehydration).
FIG. 6C is a moisture sorption isotherm corresponding to the Tartrate Hydrate.
FIG. 6D is a moisture sorption isotherm corresponding to the Freebase Anhydrate Form D.
In one embodiment, the Tartrate Hydrate has a moisture sorption isotherm profile showing a weight gain of about 1% to about 2% when relative humidity is increased from about 10% relative humidity to about 90% relative humidity at a temperature of 25° C.

The nature of data set [2]: Moisture sorption isotherm. The data set is classed as physicochemical. The procedure: Moisture vapor isotherm data were collected with a DVS Advantage (Surface Measurement Systems Ltd, Alperton, United Kingdom). The sample powder (5 mg to 20 mg) was loaded on a tared pan of the DVS Advantage. The moisture sorption isotherm data were collected from 30-0-90-0-30% relative humidity in 10% relative humidity intervals. For each step, the dm/dt criteria was 0.001% over 5 minutes, a minimum dm/dt time of 30 minutes, and a maximum dm/dt of 120 minutes. Data was collected isothermally at 25° C. with a nitrogen flow rate of 200 cm^3/minute. The post DVS sample was kept at approximately 30% relative humidity before PXRD analysis.

Data set [3] is described as follows: Stability of isolated solid form at ambient conditions. The settings on record: after isolation. The data set is classed as physicochemical.
A short description of data set [4]: Physical stability of solid state forms (dehydration, desolvation, conversion). Conditions: for conversion upon drying: drying / ambient drying; for physical stability: general statement on the solid state form. The data set is classed as physicochemical. The procedure:
The Tartrate Hydrate dehydrated into Amorphous at low relative humidity and high temperature, e.g., <10% RH at 25° C. Shearing and compression potentially cause conversion to the amorphous tartrate, and therefore it is not suitable for compressing into tablet form. Additionally, the filter cake solidified during drying, resulting in the need for additional controls during drying.
In addition, Freebase Hydrate Form C can be grown into different particle sizes.
Freebase Anhydrate Form D can be manufactured only when the water content of the crystallization solvent is low, and will convert to Freebase Hydrate Form C in solutions at high water content. The manufacture of Freebase Anhydrate Form D thus requires strict control of water content. Freebase Anhydrate Form D is slow to crystallize, and difficult to manufacture in higher yield. […] Freebase Hydrate Form C will convert to Freebase Anhydrate Form D in a solution of ethyl acetate with low water content.
The resulting amorphous hydrochloride is hygroscopic. Yields obtained for each of the crystalline hydrochlorides generally have been in the 10% to 15% range.

A further data set is described as follows: Equilibrium solubility. The data set is classed as physicochemical.
Data set [5] in a line: Chemical stability of solid state forms in closed vials at controlled temperature and relative humidity. Conditions: general statement on the solid state form. The data set is classed as physicochemical. The procedure:
The Amorphous Freebase, however, is hygroscopic and can comprise as much as 12% by weight water at 25° C./90% relative humidity. Environmental controls potentially are required to ensure appropriate control of potency and water content during storage, dispensing, and handling of the Amorphous Freebase.
The Tartrate Hydrate, however, potentially will convert to an amorphous tartrate below 10% relative humidity, when heated, or when compressed or under shear.

The nature of data set [6]: Solid state accelerated stability study. The data set is classed as physicochemical. Conditions: for chemical stability: solid state accelerated stability study. The procedure: Samples (approximately 1 mg to 2 mg) of the solid state form were weighed into glass vials and tested as described below.
Data set [7] can be described thus: Pharmacokinetic interaction of Compound 1 and methotrexate (dose-normalized AUC). Format: in vivo, human. Conditions: FIG. 35B.
A short description of data set [8]: Study 2-Part 2: methotrexate PK alone or with Compound 1 in subjects with RA. Conditions: human; for CL renal: urine and plasma. Format: in vivo.
Protocol: Subjects received study drug for 26 consecutive days (Study Days 3 through 28) and a single morning dose of study drug on Study Day 29. […] Subjects were confined to the study site for a total of 10 days—from Day 1 to Day 4 and from Day 27 to Day 31.
Samples quantified below the LLOQ were reported as zero.
Renal clearance (CLr) was calculated as Au,0-12/AUC0-12 at steady state.
Another data set has as its system isolated Treg cells. Conditions: isolated Treg cells and rheumatoid arthritis synovial fluid; cited from earlier work.

Entries after “also recorded” stand apart in the source; their conditions may differ. Structures can show the parent of a compound that is named as a salt.

Protocol for Equilibrium solubility: After equilibration, the mixtures were inspected to assure that the amount of excess solid was sufficient to permit re-characterization. […] The pH of aqueous suspensions was determined after equilibration. The solid phase was separated from the liquid phase by centrifugation at 3300 rpm at equilibration temperatures (i.e., 25° C. or 37° C.). The supernatant was then filtered (13 mm Acrodisc® syringe filter with 0.45μ GHP membrane, Pall® Life Sciences, Ann Arbor, Mich.) to discard the initial 2 mL (to saturate filter) and capture the last 1 mL for analysis. The filtrate was diluted as needed for quantification of the material studied by HPLC method (as detailed elsewhere herein). The physical form of the recovered solid was characterized by powder X-ray diffraction to examine whether or not phase change had occurred

`CC[C@@H]1CN(C(=O)NCC(F)(F)F)C[C@@H]1c1cnc2cnc3[nH]ccc3n12` [Freebase Anhydrate Form D, (3S,4R)-3-ethyl-4-(3H-imidazo[1,2-a]pyrrolo[2,3-e]pyrazin-8-yl)-N-(2,2,2-trifluoroethyl)pyrrolidine-1-carboxamide]: the “water uptake (reversibly hygroscopic)” value in [1] (90% RH at 25° C.) was “up to 1.8%”. Besides, the hygroscopicity entry in data set [1] is reported as “reversibly hygroscopic”. In data set [2] (90% relative humidity at 25° C.), the “Moisture sorption (reversibly sorbs up to)” value was “up to 1.8%”.

On to `CC[C@@H]1CN(C(=O)NCC(F)(F)F)C[C@@H]1c1cnc2cnc3[nH]ccc3n12` [Freebase Hydrate Form B, (3S,4R)-3-ethyl-4-(3H-imidazo[1,2-a]pyrrolo[2,3-e]pyrazin-8-yl)-N-(2,2,2-trifluoroethyl)pyrrolidine-1-carboxamide], for which the “Stability at ambient conditions” value in data set [3] is “not stable after isolation at ambient conditions and readily dehydrated to the Amorphous Freebase; also recorded: not stable at ambient conditions and readily dehydrates to the Amorphous Freebase”. In addition, in data set [4], the conversion upon drying entry is recorded as “convert to the Amorphous Freebase upon drying” and the physical stability entry is “not physically stable”.

With `CC[C@@H]1CN(C(=O)NCC(F)(F)F)C[C@@H]1c1cnc2cnc3[nH]ccc3n12` [Freebase Hydrate Form C, (3S,4R)-3-ethyl-4-(3H-imidazo[1,2-a]pyrrolo[2,3-e]pyrazin-8-yl)-N-(2,2,2-trifluoroethyl)pyrrolidine-1-carboxamide], the Solubility in the data set “Equilibrium solubility” (FasSIF (pH 6.5 at 37° C.)) amounted to 0.22 mg/mL; in “Equilibrium solubility” (pH 1 at 25° C.) it was 55.3 mg/mL. For the same molecule, the chemical stability entry is “excellent chemical stability; also recorded: good chemical stability” in data set [5] and “acceptable” in [6]. In addition, the “temperature up to which no dehydration occurs” value in data set [4] (drying) is “around 110 °C”. Further, the physical stability entry in data set [4] was “excellent and good”. Also, the “stability under mechanical processing” value in [4] (milling, compression) is recorded as “stable under mechanical processing”. For the same molecule, the hygroscopicity result was “low hygroscopicity” in data set [1] and “not hygroscopic” in [2] (moisture sorption isotherm analysis, 25° C.). For the same molecule, in data set [6] (80/75 10 days, 50/75 6 weeks, 40/75 and 30/65 24 weeks, 25/60 12 months (Temp ° C./% RH)), the “Growth of degradation products” value was “no growth of degradation products”. The “Change in attributes evaluated (description, crystal form, assay, impurities and water content)” value in [6] (storage conditions of the accelerated stability study) was “No material change”.

Regarding `CC[C@@H]1CN(C(=O)NCC(F)(F)F)C[C@@H]1c1cnc2cnc3[nH]ccc3n12` [Freebase Solvate Form A, (3S,4R)-3-ethyl-4-(3H-imidazo[1,2-a]pyrrolo[2,3-e]pyrazin-8-yl)-N-(2,2,2-trifluoroethyl)pyrrolidine-1-carboxamide], the “Stability at ambient conditions” value in [3] is “not stable after isolation at ambient conditions and readily dehydrated to the Amorphous Freebase”. Also, in data set [4], the conversion upon drying entry is reported as “convert to the Amorphous Freebase upon drying” and the physical stability entry is listed as “not physically stable”.

Regarding `CC[C@@H]1CN(C(=O)NCC(F)(F)F)C[C@@H]1c1cnc2cnc3[nH]ccc3n12` [Hydrochloride Solvate Form AA, (3S,4R)-3-ethyl-4-(3H-imidazo[1,2-a]pyrrolo[2,3-e]pyrazin-8-yl)-N-(2,2,2-trifluoroethyl)pyrrolidine-1-carboxamide], the conversion upon drying result in data set [4] is on record as “convert to an amorphous hydrochloride upon ambient drying”.

For `CC[C@@H]1CN(C(=O)NCC(F)(F)F)C[C@@H]1c1cnc2cnc3[nH]ccc3n12` [Hydrochloride Solvate Form BB, (3S,4R)-3-ethyl-4-(3H-imidazo[1,2-a]pyrrolo[2,3-e]pyrazin-8-yl)-N-(2,2,2-trifluoroethyl)pyrrolidine-1-carboxamide], in data set [4], the conversion upon drying entry was “convert to an amorphous hydrochloride upon ambient drying”.

On to `CC[C@@H]1CN(C(=O)NCC(F)(F)F)C[C@@H]1c1cnc2cnc3[nH]ccc3n12` [Hydrochloride Solvate Form CC, (3S,4R)-3-ethyl-4-(3H-imidazo[1,2-a]pyrrolo[2,3-e]pyrazin-8-yl)-N-(2,2,2-trifluoroethyl)pyrrolidine-1-carboxamide], for which the conversion upon drying result in data set [4] is reported as “convert to an amorphous hydrochloride upon ambient drying”.

For `CC[C@@H]1CN(C(=O)NCC(F)(F)F)C[C@@H]1c1cnc2cnc3[nH]ccc3n12` [L-Maleate Form AAA, (3S,4R)-3-ethyl-4-(3H-imidazo[1,2-a]pyrrolo[2,3-e]pyrazin-8-yl)-N-(2,2,2-trifluoroethyl)pyrrolidine-1-carboxamide], the chemical stability entry in data set [5] is on record as “less chemically stable”.

`CC[C@@H]1CN(C(=O)NCC(F)(F)F)C[C@@H]1c1cnc2cnc3[nH]ccc3n12` [L-Maleate Form BBB, (3S,4R)-3-ethyl-4-(3H-imidazo[1,2-a]pyrrolo[2,3-e]pyrazin-8-yl)-N-(2,2,2-trifluoroethyl)pyrrolidine-1-carboxamide]: the chemical stability result in [5] is given as “less chemically stable”; in data set [6] (listed as L-maleate salt), “prone to chemical degradation”. In addition, the Degradation on storage entry in [6] (50° C./75% relative humidity (open and closed glass vials)) is recorded as “degraded to products that were not observed for the Freebase Hydrate Form C or the Tartrate Hydrate”.

With `CCC1CN(C(=O)NCC(F)(F)F)CC1c1cnc2cnc3[nH]ccc3n12.Cl` (stereo not drawn) [amorphous hydrochloride], in data set [1], the hygroscopicity entry was “hygroscopic”.

As for `CN(Cc1cnc2nc(N)nc(N)c2n1)c1ccc(C(=O)N[C@@H](CCC(=O)O)C(=O)O)cc1` [methotrexate], the “effect of concomitant Compound 1 administration on methotrexate dose-normalized AUC” value in [7] is listed as “lack of effect”. Besides, the Tmax in [8] (plasma, 6 mg, Compound 1 6 mg BID Group, Day 1 (alone)) came out at 2.5 h; in [8] (plasma, 12 mg, Compound 1 12 mg BID Group, Day 29 (with Compound 1)), 2.5 h; in data set [8] (plasma, 24 mg, Compound 1 24 mg BID Group, Day 1 (alone)), 3 h; in data set [8] (plasma, 24 mg, Compound 1 24 mg BID Group, Day 29 (with Compound 1)), 2.5 h. Moreover, the half-life in data set [8] (plasma, 6 mg, Compound 1 6 mg BID Group, Day 29 (with Compound 1), harmonic mean ± pseudo-SD, read-out: t1/2 (terminal elimination half-life) (converted)) is 4.7 ± 1.3 h. Further, the CL renal in data set [8] (6 mg, Compound 1 6 mg BID Group, Day 1 (alone)) was 110 mL/min; in data set [8] (6 mg, Compound 1 6 mg BID Group, Day 29 (with Compound 1)) it was 90.5 mL/min; in data set [8] (12 mg, Compound 1 12 mg BID Group, Day 1 (alone)), 102 mL/min; in [8] (12 mg, Compound 1 12 mg BID Group, Day 29 (with Compound 1)), 79.7 mL/min; in [8] (24 mg, Compound 1 24 mg BID Group, Day 1 (alone)) it was 124 mL/min; in data set [8] (24 mg, Compound 1 24 mg BID Group, Day 29 (with Compound 1)), 107 mL/min. In addition, the CL renal in data set [8] (Placebo group, Day 1) is 72 mL/min; in [8] (Placebo group, Day 29) it was 96.7 mL/min.

B1: BT-061: humanized agonistic monoclonal antibody that binds to a unique epitope of human CD4 (antibody, chains of the INN, looked up, V domains shown)
VH: EEQLVESGGGLVKPGGSLRLSCAASGFSFSDCRMYWLRQAPGKGLEWIGVISVKSENYGANYAESVRGRFTISRDDSKNTVYLQMNSLKTEDTAVYYCSASYYRYDVGAWFAYWGQGTLVTVSS
VL: DIVMTQSPDSLAVSLGERATINCRASKSVSTSGYSYIYWYQQKPGQPPKLLIYLASILESGVPDRFSGSGSGTDFTLTISSLQAEDVAVYYCQHSRELPWTFGQGTKVEIK
As to B1, in the data set with isolated Treg cells, the “CD4+ and CD8+ T effector cell proliferation” value is “suppression”; the “expression of pro-inflammatory cytokines” value is listed as “reduction”; the “production of the anti-inflammatory cytokine TGFβ” value is “increase”.

The values above are taken from patent US10730883B2 (AbbVie Inc., priority 2015, dated 2020).
